# Experimental data published in patent US9994915B2, “miR-211 expression and related pathways in human melanoma” (Sanford-Burnham Medical Research Institute, priority 2010, dated 2018).
# Key:
# Type in all cases: cell-based, human
# [1] = system: IGFBP5 mRNA; assay: Next Gen sequencing of IGFBP5 mRNA in WM1552C cells
# Method: To extend the findings of the MITF knock-down study and to further establish IGFBP5 as a miR-211 target, the effect of miR-211 expression on IGFBP5 mRNA was determined. WM1552C cells were transfected with either an empty vector or the vector encoding and expressing miR-211. Additionally, untransfected WM1552C cells were treated with 5-Aza-2′deoxycytidine (“5-Aza”) to investigate whether miR-211 down-regulates IGFBP5 mRNA production through a genomic methylation mechanism.
# [2] = system: A375 cells; assay: cell counts after DFO (simulated hypoxia), A375 and A375/211
# Method: (§1) A375 cells and WM1552C, both wild-type and miR-211-expressing, were subjected to treatment with 0, 250 nM, or 400 nM defroxamine (DFO) to simulate hypoxic conditions in order to determine whether miR-211 expression is capable of being regulated by changes in O2 concentrations. Cell counts were performed for each treatment group.
# (§2) Relative to untreated cells, survival was about 45% following 250 nM DFO and about 25% following 400 nM DFO. The presence of miR-211 in these cells caused this effect to be greatly exacerbated, reducing survival to about 13% at 250 nM DFO and about 8% at 400 nM DFO. Similarly, for WM1552C cells, survival was about 77% at 250 nM DFO and about 55% at 400 nM DFO, compared to untreated cells (FIG. 21).
# [3] = system: miR-211 expression; assay: qPCR of miR-211 expression under simulated hypoxia in melanocytes; settings: DFO-simulated hypoxia
# Method: (§3) The effect of hypoxia on miR-211 expression was investigated under simulated (DFO) and actual hypoxic conditions in both melanocytes and SKMEL-28 cells. miRNA-211 expression was determined by qPCR.
# [4] = system: miR-211 expression; assay: qPCR of miR-211 expression under simulated hypoxia in SKMEL-28 cells; settings: DFO-simulated hypoxia
# Method: as §3
# [5] = system: SKMEL-28 cells; assay: cell counts after DFO with or without miR-211 inhibitor, SKMEL-28
# Method: SKMEL-28 cells, were subjected to the same DFO or hypoxic conditions as described above either in the presence or absence of an miR-211 inhibitor (has-miR-211 Anti-miR™ miRNA Inhibitor, Ambion, catalog numberAM17000, ID AM10168). […] The survival of SKMEL-28 cells was about 64% at 250 nM DFO and about 50% 400 nM DFO, compared to untreated cells. […] The survival of the SKMEL-28 cells treated with the miR-211 inhibitor was about 85% at 250 nM DFO and about 70% at 400 nM DFO.
# [6] = system: WM1552C cells; assay: cell counts after DFO (simulated hypoxia), WM1552C and WM1552C/211
# Method: as §1, §2
SMILES,IGFBP5 mRNA expression [1],"survival relative to untreated cells ([2]; A375/211 (miR-211-expressing) cells, 250 nM DFO)","survival relative to untreated cells ([2]; A375/211 (miR-211-expressing) cells, 400 nM DFO)","survival relative to untreated cells ([2]; A375 cells, 250 nM DFO)","survival relative to untreated cells ([2]; A375 cells, 400 nM DFO)",cell death ([2]; miR-211-expressing melanoma cells treated with hypoxia mimetic agent),miR-211 expression [3],miR-211 expression [4],survival compared to untreated cells ([5]; 250 nM DFO),survival compared to untreated cells ([5]; 400 nM DFO),"survival compared to untreated cells ([6]; WM1552C cells, 250 nM DFO)","survival compared to untreated cells ([6]; WM1552C cells, 400 nM DFO)","survival compared to untreated cells ([6]; WM1552C/211 (miR-211-expressing) cells, 250 nM DFO)","survival compared to untreated cells ([6]; WM1552C/211 (miR-211-expressing) cells, 400 nM DFO)"
"Nc1ncn([C@H]2C[C@H](O)[C@@H](CO)O2)c(=O)n1 [5-Aza, 5-Aza-2′deoxycytidine, reference compound]",no effect,–,–,–,–,–,–,–,–,–,–,–,–,–
"CC(=O)N(O)CCCCCNC(=O)CCC(=O)N(O)CCCCCNC(=O)CCC(=O)N(O)CCCCCN [DFO, defroxamine]",–,about 13%,about 8%,about 45%,about 25%,increased cell death,increases in a dose-dependent manner,neither simulated nor actual hypoxic conditions had a significant effect,about 64%,about 50%,about 77%,about 55%,about 40%,about 21%
